# Reference: patent US10849878B2 (OBSHCHESTVO S OGRANICHENNOY OTVETSTVENNOSTYU “NORMOFARM”, priority 2015, dated 2020)
# What was measured:
# rats [1] = details: comparison salts; cited from earlier work
# rats [2] = experiment: Porsolt helplessness test; assay type: in vivo, rat
# [3] = in normal settings; cited from earlier work
# [4] = 7 days after the dosing, LiAsc, LiCa 5 mg/kg, phenazepam 0.25 mg
# [5] = 7 days after the drug withdrawal, 5 mg/kg
# [6] = 28 days after the dosing, LiAsc, LiCa 5 mg/kg, phenazepam 0.25 mg
# [7] = 28 days after the drug withdrawal, 5 mg/kg
compound,measurement,setting,value
NCCCC(=O)O [GABA lithium],"LD50, mg/kg in rats",rats [1],1800 mg/kg
O=C([O-])c1ccccc1.[Li+] [Lithium benzoate],"LD50, mg/kg in rats",rats [1],1200 mg/kg
[Br-].[Li+] [Lithium bromide],"LD50, mg/kg in rats",rats [1],2200 mg/kg
O=C([O-])[O-].[Li+].[Li+] [Lithium carbonate],Adrenalin,rats [2]; [4],24.9 ± 9.5 µg/L
same,Duration of activity,rats [2]; [4],100.9 ± 64.9 s
same,Duration of immobility,rats [2]; [4],499.1 ± 53.0 s
same,Eosinophils (Dunger method) in mm^3,rats [2]; [4],312.6 ± 68.1 in mm^3
same,Noradrenalin,rats [2]; [4],69.3 ± 35.2 µg/L
same,Number of gastric ulcers,rats [2]; [4],5.9 ± 2.1
same,Adrenalin,rats [2]; [5],29.6 ± 13.6 µg/L
same,Duration of activity,rats [2]; [5],91.8 ± 43.9 s
same,Duration of immobility,rats [2]; [5],507.9 ± 101.4 s
same,Eosinophils (Dunger method) in mm^3,rats [2]; [5],299.3 ± 93.5 in mm^3
same,Noradrenalin,rats [2]; [5],80.6 ± 29.7 µg/L
same,Number of gastric ulcers,rats [2]; [5],9.9 ± 3.7
same,Adrenalin,rats [2]; [6],36.7 ± 9.6 µg/L
same,Duration of activity,rats [2]; [6],90.8 ± 67.3 s
same,Duration of immobility,rats [2]; [6],508.9 ± 107.2 s
same,Eosinophils (Dunger method) in mm^3,rats [2]; [6],301.8 ± 102.3 in mm^3
same,Noradrenalin,rats [2]; [6],76.83 ± 30.2 µg/L
same,Number of gastric ulcers,rats [2]; [6],7.3 ± 2.6
same,Adrenalin,rats [2]; [7],37.1 ± 14.7 µg/L
same,Duration of activity,rats [2]; [7],93.8 ± 32.7 s
same,Duration of immobility,rats [2]; [7],504.4 ± 173.4 s
same,Eosinophils (Dunger method) in mm^3,rats [2]; [7],281.2 ± 83.1 in mm^3
same,Noradrenalin,rats [2]; [7],76.34 ± 18.6 µg/L
same,Number of gastric ulcers,rats [2]; [7],10.0 ± 4.8
[Cl-].[Li+] [Lithium chloride],"LD50, mg/kg in rats",rats [1],970 mg/kg
[F-].[Li+] [Lithium fluoride],"LD50, mg/kg in rats",rats [1],175 mg/kg
CC(O)C(=O)[O-].[Li+] (stereo not drawn) [Lithium lactate],"LD50, mg/kg in rats",rats [1],2100 mg/kg
[Li+].[O]=[Ta](=[O])[O-] [Lithium metatantalate],"LD50, mg/kg in rats",rats [1],750 mg/kg
O=C([O-])c1cccnc1.[Li+] [Lithium nicotinate],"LD50, mg/kg in rats",rats [1],2200 mg/kg
O=C([O-])CCCO.[Li+] [Lithium oxibutirate],"LD50, mg/kg in rats",rats [1],2200 mg/kg
O=C([O-])CCC(=O)[O-].[Li+].[Li+] [Lithium succynate],"LD50, mg/kg in rats",rats [1],2416 mg/kg
O=C1O[C@H]([C@@H](O)CO)C(O)=C1O [ascorbic acid],plasma concentration,[3],10 to 20 µg/mL
O=C1CN=C(c2ccccc2Cl)c2cc(Br)ccc2N1 [phenazepam],Adrenalin,rats [2]; [4],6.8 ± 0.65 µg/L
same,Duration of activity,rats [2]; [4],426.7 ± 76.4 s
same,Duration of immobility,rats [2]; [4],173.3 ± 22.1 s
same,Eosinophils (Dunger method) in mm^3,rats [2]; [4],969.1 ± 42.3 in mm^3
same,Noradrenalin,rats [2]; [4],17.6 ± 1.95 µg/L
same,Number of gastric ulcers,rats [2]; [4],0.4 ± 0.1
same,Adrenalin,rats [2]; [6],6.2 ± 0.57 µg/L
same,Duration of activity,rats [2]; [6],494.8 ± 60.4 s
same,Duration of immobility,rats [2]; [6],105.2 ± 20.1 s
same,Eosinophils (Dunger method) in mm^3,rats [2]; [6],988.1 ± 42.3 in mm^3
same,Noradrenalin,rats [2]; [6],16.2 ± 1.1 µg/L
same,Number of gastric ulcers,rats [2]; [6],0.1 ± 0.2
Lithium nitrate trihydrate,"LD50, mg/kg in rats",rats [1],1400 mg/kg
